From a melting point compilation (Tetko et al.)

SMILES | melting point
CC(c1cc(Cl)ccc1Cl)n1nccc1N (configuration not stated) | 94 to 96 °C
Nc1ccccc1-n1ccc(C(=O)O)n1 | 136 to 138 °C
O=C(O)CN1C(=O)c2ccccc2C(F)(F)C1=O | 203 to 205 °C
CCNC(=O)NCCCO | 53 to 55 °C
CN(c1ccccc1)S(=O)(=O)c1cc(C(=O)O)ccc1Br | 204 to 206 °C
N#Cc1ccc(N=C=O)cc1 | 101 to 104 °C
COC(=O)c1ccc(C)c(NCc2[nH]cnc2C)c1 | 180 to 182 °C
O=C(O)c1ccccc1NS(=O)(=O)c1ccc(Cl)c(Cl)c1 | 143 to 147 °C
Cc1cc(C(=O)O)sc1C=O | 204 to 206 °C
NC1=C(c2nc3ccccc3[nH]2)C(=O)CN1NC(=O)c1cccs1 | 270 to 272 °C
COc1ccc(-c2nnn(CC(=O)O)n2)cc1OC | 259 to 261 °C
Fc1ccc(-c2n[nH]cc2Br)cc1 | 141 to 143 °C
O=C(O)c1cn(-c2ccc(Br)cc2Cl)nn1 | 144 to 146 °C
O=C1Nc2cc(F)cc(F)c2C1=O | 229 to 231 °C
CC(=O)N(C)c1cccc(N)c1 | 114 to 116 °C
Clc1cc(Cl)nc(C2CC2)n1 | 39 to 41 °C
Cc1coc(-c2ccc(C)c(N)c2)n1 | 114 to 116 °C
O=[N+]([O-])c1ccn(C2CCCCC2O)n1 (configuration not stated) | 94 to 96 °C
Cc1ccc(S(=O)(=O)NC(C)(C)C)cc1C(=O)O | 180 to 182 °C
O=C(O)CONS(=O)(=O)c1ccc(F)cc1 | 168 to 170 °C
COC(=O)Cc1ccc(Oc2ccnc(C#N)c2)cc1 | 120 to 122 °C
Cc1c(Br)ccc(S(N)(=O)=O)c1C | 195 to 197 °C
O=C(O)C1CC1c1c(F)cccc1Cl (configuration not stated) | 109 to 111 °C
CCc1nnc(CO)n1C | 41 to 43 °C

SMILES | melting point
CC(C)(C)c1cnc(N)s1 | 79 to 81 °C
Cc1nn(Cc2ccccc2)c(C)c1CN | 39 to 41 °C
Nc1nnc2ccc(Cl)nn12 | 274 to 276 °C
O=C(O)c1cccn1CCc1ccccc1 | 119 to 121 °C
Nc1cc2c(cc1[N+](=O)[O-])OCCO2 | 150 to 152 °C
COC(=O)c1ccc(-c2nn[nH]n2)cc1 | 230 to 232 °C
O=C(O)c1occc1-c1ccccc1 | 142 to 144 °C
CCOC(=O)C(C(C)=O)C1CCS(=O)(=O)C1 (configuration not stated) | 71 to 80 °C
Nc1ccccc1N1CC(C(F)(F)F)OC1=O (configuration not stated) | 74 to 76 °C
Cc1cc(Cl)c2cc(F)c(F)c(F)c2n1 | 73 to 75 °C
O=C(CCl)Nc1ccc2c(c1)C(=O)c1ccccc1C2=O | 298 to 300 °C
NCc1ncc(-c2ccccc2)[nH]1 | 142 to 144 °C
COC(=O)c1cccc(S(=O)(=O)N2CCCCC2)c1 | 83 to 85 °C
Nc1ccc(S(N)(=O)=O)cc1N | 145 to 154 °C
c1ccc2[nH]c(C3CCCNC3)nc2c1 (configuration not stated) | 189 to 191 °C
CCCC(C(=O)O)N(C)C (configuration not stated) | 179 to 181 °C
O=C(CCCl)N1CCN(c2ccccn2)CC1 | 97 to 99 °C
CC(O)(C(=O)O)c1ccc(F)cc1 (configuration not stated) | 89 to 91 °C
NS(=O)(=O)Cc1ccc(CO)cc1 | 118 to 120 °C
COc1cc(C(=O)O)ccc1OCc1cnn(C)c1 | 182 to 184 °C
CCn1ccnc1S | 78 to 80 °C
CCC(NC(=O)c1ccccc1)C(N)=S (configuration not stated) | 244 to 246 °C
C[C@H](NC(=O)C1CCCCC1)C(=O)O | 127 to 129 °C
Nc1ccccc1C(=O)NC1CC1 | 135 to 136 °C

SMILES | melting point
O=S1(=O)CCCN1Cc1ccc(Br)cc1 | 58 to 60 °C
O=C1CC(c2ccccc2)CN1 (configuration not stated) | 70 to 72 °C
Cc1cc(C)n2nc(CCCO)nc2n1 | 89 to 91 °C
COc1cc(C=O)cc(OC)c1OCc1ccccc1 | 62 to 64 °C
Cc1ccccc1COc1cccc(N)c1 | 61 to 63 °C
CC(C)(C)OC(=O)Nc1cnc(C(=O)O)cn1 | 261 to 263 °C
O=S1(=O)CCCN1c1cccc(Cl)c1 | 85 to 87 °C
CCN(CC)S(=O)(=O)c1ccc(N2CCOCC2)c(N)c1 | 94 to 96 °C
S=c1[nH][nH]c(=NCCc2cccs2)s1 | 82 to 84 °C
COC(=O)c1scnc1C1CC1 | 59 to 61 °C
NC(=O)CN(Cc1ccccc1)c1cccc(N)c1 | 169 to 171 °C
CCn1ncc2c(C(=O)O)cc(-c3cccs3)nc21 | 243 to 245 °C
CC(=O)Nc1ccc(C)cc1N | 132 to 134 °C
NC(CC(=O)NC1CCCCC1)=NO | 167 to 169 °C
COc1ccc(C(=O)O)cc1S(=O)(=O)N1CCOCC1 | 218 to 220 °C
Cc1nn(-c2ccccc2)c2sc(C(=O)O)cc12 | 234 to 236 °C
Cc1ccccc1-c1nonc1N | 88 to 90 °C
Nc1cc(Cl)c(NC(=O)c2cnccn2)c(Cl)c1 | 195 to 197 °C
O=C(O)c1cc(-c2cccc3ccccc23)nc2ccccc12 | 225 to 227 °C
O=C(O)c1cc(-c2ccccc2)nc2c1cnn2Cc1cccnc1 | 210 to 212 °C
Cn1c(CO)nnc1-c1ccccc1 | 184 to 186 °C
O=C(O)c1ccc(COc2ccccc2Br)cc1 | 185 to 187 °C
O=C(O)CCc1ccc(-c2ccccc2F)o1 | 117 to 119 °C
CN(c1ccc(C(=O)CCl)cc1)S(C)(=O)=O | 75 to 77 °C
